Measured values taken from patent US10537552B2, “Substituted 5-hydroxyoxindoles and their use as analgesics and fever reducers” (CARAFE DRUG INNOVATION, LLC, priority 2015, dated 2020).

Key:
[1] = solubility observed when preparing dosing vehicle; format: physicochemical
Method: Acetaminophen was acquired from Sigma-Aldrich Corp. (St. Louis, Mo., USA); 5-hydroxy-7-methyloxindole was provided by CaRafe Drug Innovation, LLC (Norristown, Pa., USA) in the form of a powder. […] […] This procedure provided a crude suspension, but it precipitated after some time, therefore vortexing was repeated prior to each injection. Acetaminophen was prepared in the same vehicle (6% Tween® 20 reagent) using light magnetic stirring.

COX2 (h) = target: T1, COX2 (h) (Homo sapiens, UniProt P35354); assay: COX2 enzyme assay; format: biochemical
T1 construct: host or cells: Sf9 cells
T1 sequence (P35354 18-604): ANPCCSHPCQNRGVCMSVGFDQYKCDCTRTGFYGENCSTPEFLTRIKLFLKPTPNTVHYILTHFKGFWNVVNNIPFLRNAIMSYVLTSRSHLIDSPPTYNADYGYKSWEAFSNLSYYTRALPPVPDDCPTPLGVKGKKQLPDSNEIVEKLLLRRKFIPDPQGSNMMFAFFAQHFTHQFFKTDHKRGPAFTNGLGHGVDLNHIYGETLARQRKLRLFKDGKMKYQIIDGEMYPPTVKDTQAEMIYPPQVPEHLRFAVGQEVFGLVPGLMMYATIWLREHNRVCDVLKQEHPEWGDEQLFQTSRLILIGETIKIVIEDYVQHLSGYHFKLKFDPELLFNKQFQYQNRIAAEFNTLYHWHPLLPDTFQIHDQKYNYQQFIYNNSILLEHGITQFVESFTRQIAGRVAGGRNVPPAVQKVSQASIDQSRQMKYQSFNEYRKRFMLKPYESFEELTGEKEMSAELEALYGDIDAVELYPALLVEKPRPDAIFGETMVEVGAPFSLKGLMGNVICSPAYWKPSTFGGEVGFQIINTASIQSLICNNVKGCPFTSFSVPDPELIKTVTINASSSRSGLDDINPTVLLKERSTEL
Method: The assay was performed according to the procedure described in Glaser, European Journal of Pharmacology, 281:107-111, 1995, which is incorporated by reference. Recombinant enzymes were reconstituted in buffer. The enzyme preparations were preincubated with DMSO vehicle or compounds in DMSO for 5 min at 37° C. and the human recombinant enzyme expressed in Sf9 cells.
(§1) An inhibition greater than about 50% represented significant effects of the test compound. An inhibition of about 25% to about 50% was indicative of weak to moderate effects. An inhibition less than about 25% are not considered significant and may be primarily attributable to variability of the signal around the control level.

[2] = tested on: liver (acute liver toxicity); assay: liver histology (pathohistological examination); format: in vivo, C57BL/6 mice
Method: In all experiments, mice were fasted overnight and then allocated randomly to receive either acetaminophen or equimolar dose of 5-hydroxy-7-methyloxindole by the intragastric route. Food was returned 4 h after the treatment. The two experimental groups were:
(a) Lower-dose group: Mice were administered acetaminophen (300 mg/kg) or 5-hydroxy-7-methyloxindole (324 mg/kg). After 7 h, the mice were sacrificed and liver and blood samples were taken for the analysis.
Seven hours after receiving the second injection, mice were sacrificed and liver and blood samples were taken for analysis.
A portion of the liver lobes of each mouse was fixed in 4% buffered paraformaldehyde, dehydrated in increasing concentrations of ethanol, and embedded in paraffin. Then, sections of tissue were cut to […] thickness using a rotary microtome, stained with hematoxylin and eosin, and then analyzed under a microscope.

opioid receptor = opioid receptor binding assay, non-selective, [3H]-naloxone; design: species or system rat
Method: The non-selective assay was performed according to the procedure described in Childers, European Journal of Pharmacology, 55:11-18, 1979, which is incorporated by reference. In summary, adult Male Sprague-Dawley rats were killed by decapitation and the brains rapidly removed and placed in ice-cold buffer. The cerebral cortex was dissected and homogenized in buffer and the homogenates were further centrifuged. The binding experiments were performed at 25° C. for 40 min. Reaction mixtures contained tissue suspension, unlabeled drug and [^3H]-naloxone (1 nM) radioligand.
as §1

Compound: Cc1cc(O)cc2c1NC(=O)C2 [5-hydroxy-7-methyloxindole, 5-Hydroxy-7-methyloxindole]
- solubility ([1]; general statement): low solubility
- solubility in saline ([1]; saline, for dosing): not sufficiently soluble
- binding to COX2 receptor, in words (COX2 (h)): binds minimally, if at all
- inhibition at 10 µM (COX2 (h); test concentration 1 × 10^−5 M, human recombinant enzyme expressed in Sf9 cells): -6.8%
- liver injury on pathohistological examination ([2]; higher-dose protocol: two cumulative injections 2.5 h apart, 7 h after second injection): without visible liver injury
- liver injury on pathohistological examination ([2]; lower-dose protocol: acetaminophen 300 mg/kg or 5-hydroxy-7-methyloxindole 324 mg/kg, 7 h): no visible sign of liver injury
- binding to opioid receptor, in words (opioid receptor): binds minimally, if at all
- Mean Inhibition (%) (opioid receptor; test concentration 1 × 10^−5 M, rat cerebral cortex, [3H]-naloxone 1 nM): −9.7%
